The text below walks through data of patent US20260226067A1, “MODULATORS OF TRPML, THEIR COMPOSITIONS AND METHODS OF USE” (Caraway Therapuetics, Inc., priority 2023, published 2026).

Test [1] deals with TRPMLs. The note with it: background statement; cited from earlier work.
Test [2] addresses human TRPML1 (Homo sapiens, UniProt Q9GZU1). Kind of test: Fluorescent TRPML1 assay (Fluo4-AM calcium fluorescence). The test is classed as cell-based. The note with it: HEK-293 Trex cells expressing hTRPML1, Fluo4-AM fluorescence; read-out: Human TRPML 1 EC50. As to the method: (§1) HEK-293 Trex cells were stably transfected with a construct consisting of the human coding sequence for TRPML1 cloned into the tet-inducible plasmid pCDNA5 T/O. Mutations were introduced into the TRPML1 sequence to facilitate expression on the cell surface (Silvia Vergarajauregui, Rosa Puertollano Traffic. 2006 March; 7(3): 337-353). Briefly, the cells are cultured in 150 mm round tissue culture dishes containing 20 mL of media. The day before the assay the cells are rinsed with DPBS-Ca-Mg and then treated briefly with Trypsin-EDTA. The Trypsin-EDTA is diluted with growth media, and cells are counted. 38×10^6 cells are re-plated into 150 mm round tissue culture dishes in media containing 0.5 ug/mL doxycycline to induce expression of hTRPML1.
(§2) The day of the experiment cells are lifted from the plates as above and collected by centrifugation. The cells are then suspended in dye loading buffer consisting of Ringer's solution supplemented with 0.1% Pluronic Acid and 1 micromolar Fluo4-AM dye. Cells are loaded for ~60 minutes in the dark with occasional mixing. The cells are collected by centrifugation, the loading media aspirated, and the cells resuspended in 25 mL Ringer's solution and incubated ~60 minutes in the dark. The cells are again collected by centrifugation, rinsed in Ringer's Solution and resuspended to 0.2×10^6 cells/mL in modified Ringer's solution containing 10 mM calcium.
(§3) Compounds are dissolved to a concentration of 10 millimolar with DMSO. Compound plates are created by dispensing compounds into 384 well black wall clear bottom plates (Greiner 781091). Positive and negative controls are included on each plate. Typically, different amounts of each compound are tested ranging from 100 nanoMoles (20 micromolar final concentration) decreasing in half-log steps to 31 picoMoles (6 nanomolar final concentration). Each concentration is typically tested in triplicate.
(§4) 50 microliters of dye-loaded cells are dispensed into each well of the compound assay plate created above. The fluorescence in each well is then determined with an excitation wavelength of 480 nm and an emission wavelength of 540 nm using either a Molecular Devices SpectraMax multimode plate reader or a Hamamatsu FDSS/uCell plate imager.
(§5) The resulting fluorescence for each well is exported as an ascii file and loaded into our LIMS for analysis. The percent activity of each compound at each concentration is determined by comparison to the positive and negative control wells included in each plate.
(§6) EC50 values were calculated using a non-linear regression of Prism. In the table, “A” indicates an EC50 of less than 100 nM, “B” indicates an EC50 range from 100 nM to 500 nM; “C” indicates an EC50 range from 500 nM to 2 μM; and “D” indicates an EC50 greater than 2 μM.

Test [3] concerns the target T1, Human TRPML3 (Homo sapiens, UniProt Q8TDD5).
T1 construct: expressed in transfected cells
T1 sequence (Q8TDD5 1-553): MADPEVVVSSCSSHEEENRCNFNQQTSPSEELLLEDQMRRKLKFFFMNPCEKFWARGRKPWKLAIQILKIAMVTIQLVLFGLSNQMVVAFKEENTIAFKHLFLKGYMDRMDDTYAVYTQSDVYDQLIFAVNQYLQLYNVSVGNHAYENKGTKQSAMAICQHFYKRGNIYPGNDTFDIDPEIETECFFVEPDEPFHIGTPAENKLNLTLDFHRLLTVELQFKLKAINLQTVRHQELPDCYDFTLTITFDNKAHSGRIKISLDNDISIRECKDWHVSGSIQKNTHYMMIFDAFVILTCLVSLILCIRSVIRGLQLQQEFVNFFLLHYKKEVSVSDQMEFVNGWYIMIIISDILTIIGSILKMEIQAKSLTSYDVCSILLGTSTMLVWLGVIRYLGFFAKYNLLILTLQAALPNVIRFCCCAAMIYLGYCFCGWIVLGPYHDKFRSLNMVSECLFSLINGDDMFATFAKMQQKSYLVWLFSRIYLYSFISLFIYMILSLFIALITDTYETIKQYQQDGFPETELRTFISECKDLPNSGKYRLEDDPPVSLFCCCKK
Nature of the test: Fluorescent TRPML3 assay (as for TRPML1). The test is classed as cell-based. The conditions noted are these: as TRPML1 assay with TRPML3 subtype; read-out: Human TRPML 3 EC50. Here is the method: as §1, §2, §3, §4, §5
(§7) Assays for TRPML2 and TRPML3 were performed as above for TRPML1, by substituting the appropriate TRPML2 or TRPML3 subtype for the TRPML1.
as §6

Test [4] deals with T2, Human TRPML2 (Homo sapiens, UniProt Q8IZK6).
T2 construct: expressed in transfected cells
T2 sequence (Q8IZK6 1-566): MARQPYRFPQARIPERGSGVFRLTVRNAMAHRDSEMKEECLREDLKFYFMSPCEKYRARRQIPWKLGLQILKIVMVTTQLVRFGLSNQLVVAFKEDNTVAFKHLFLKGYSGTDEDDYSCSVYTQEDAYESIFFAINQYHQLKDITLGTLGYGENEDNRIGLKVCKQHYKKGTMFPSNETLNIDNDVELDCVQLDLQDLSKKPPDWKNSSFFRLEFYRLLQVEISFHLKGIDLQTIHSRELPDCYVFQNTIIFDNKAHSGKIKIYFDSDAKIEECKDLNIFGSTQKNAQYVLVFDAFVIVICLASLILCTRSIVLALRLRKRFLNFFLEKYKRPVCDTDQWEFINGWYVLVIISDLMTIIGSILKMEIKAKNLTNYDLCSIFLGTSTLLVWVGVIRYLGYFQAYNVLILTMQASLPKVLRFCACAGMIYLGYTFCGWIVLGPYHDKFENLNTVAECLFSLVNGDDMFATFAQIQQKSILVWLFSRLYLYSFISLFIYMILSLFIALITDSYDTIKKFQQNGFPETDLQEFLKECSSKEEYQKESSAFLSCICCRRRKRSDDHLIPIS
Nature of the test: Fluorescent TRPML2 assay (as for TRPML1). The test is classed as cell-based. The conditions noted are these: as TRPML1 assay with TRPML2 subtype; read-out: Human TRPML 2 EC50. Here is the method:
as §1, §2, §3, §4, §5, §7, §6

Sequence of human TRPML1 (Q9GZU1 whole entry L15A/L16A/L577A/L578A, form open): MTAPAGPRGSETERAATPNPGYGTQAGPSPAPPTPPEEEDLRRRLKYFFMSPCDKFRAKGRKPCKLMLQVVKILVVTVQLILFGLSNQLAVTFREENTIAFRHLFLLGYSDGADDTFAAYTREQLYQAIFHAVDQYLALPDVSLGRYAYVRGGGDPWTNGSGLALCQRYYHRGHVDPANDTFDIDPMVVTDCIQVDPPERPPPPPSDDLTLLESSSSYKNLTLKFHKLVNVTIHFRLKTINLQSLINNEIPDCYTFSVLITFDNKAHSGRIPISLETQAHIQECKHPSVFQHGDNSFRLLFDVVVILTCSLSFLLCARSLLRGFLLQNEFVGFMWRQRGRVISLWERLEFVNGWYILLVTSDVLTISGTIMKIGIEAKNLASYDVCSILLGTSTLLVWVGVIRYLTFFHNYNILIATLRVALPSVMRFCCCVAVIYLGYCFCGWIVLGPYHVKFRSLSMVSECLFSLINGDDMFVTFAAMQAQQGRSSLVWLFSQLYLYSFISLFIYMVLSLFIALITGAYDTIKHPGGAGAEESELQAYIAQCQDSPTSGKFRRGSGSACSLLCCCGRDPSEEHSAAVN

`CC1CC(C)(C)N(C(=O)CN2C(=O)c3ccccc3C2=O)c2ccccc21` (stereo not shown) [ML-SA1]: the “concentration needed to effectively activate TRPMLs” value in test [1] is ~ 10 μM.
Broadly, the EC50 is the concentration needed to bring the measured effect to its halfway point. With `C[C@@H]1CN(c2ncnc3c2c(N2CCC2)cn3-c2cccc(F)c2)[C@@H](C)CN1C(=O)c1ccccc1` [Compound 108, ((2R,5S)-4-(5-(azetidin-1-yl)-7-(3-fluorophenyl)-7H-pyrrolo[2,3-d]pyrimidin-4-yl)-2,5-dimethylpiperazin-1-yl)(phenyl)methanone], the figures for the EC50 in test [2], in test [3] and in test [4] were below 100 nM, 500 to 2000 nM and 500 to 2000 nM, respectively.
For `CC(C)c1ccccc1C(=O)N1C[C@H](C)N(c2ncnc3c2c(-c2ccccc2F)cn3-c2cc(C#N)ccn2)C[C@H]1C` [Compound 120, 2-(5-(2-fluorophenyl)-4-((2S,5R)-4-(2-isopropylbenzoyl)-2,5-dimethylpiperazin-1-yl)-7H-pyrrolo[2,3-d]pyrimidin-7-yl)isonicotinonitrile], the concentration giving a half-maximal response (EC50) in test [2] is below 100 nM; in test [3], below 100 nM; in test [4], 100 to 500 nM.
Turning to `C[C@@H]1CN(c2ncnc3c2c(N2CCC2)cn3-c2cc(C#N)ccn2)[C@@H](C)CN1C(=O)c1cccc(F)c1` [Compound 114, 2-(5-(azetidin-1-yl)-4-((2S,5R)-4-(3-fluorobenzoyl)-2,5-dimethylpiperazin-1-yl)-7H-pyrrolo[2,3-d]pyrimidin-7-yl)isonicotinonitrile], the EC50 in test [2], in test [3] and in test [4] was 100 to 500 nM throughout.
On to `COc1ccccc1C(=O)N1C[C@H](C)N(c2ncnc3c2c(-c2ccccc2F)cn3-c2cc(C#N)ccn2)C[C@H]1C` [Compound 119, 2-(5-(2-fluorophenyl)-4-((2S,5R)-4-(2-methoxybenzoyl)-2,5-dimethylpiperazin-1-yl)-7H-pyrrolo[2,3-d]pyrimidin-7-yl)isonicotinonitrile], for which the figures for the EC50 in test [2], in test [3] and in test [4] were below 100 nM, below 100 nM and 100 to 500 nM, respectively.
Turning to `C[C@@H]1CN(c2ncnc3c2c(C2CC2)cn3-c2cc(C#N)ccn2)[C@@H](C)CN1C(=O)c1ccccc1` [Compound 102, 2-(4-((2S,5R)-4-benzoyl-2,5-dimethylpiperazin-1-yl)-5-cyclopropyl-7H-pyrrolo[2,3-d]pyrimidin-7-yl)isonicotinonitrile], the EC50 in test [2] is below 100 nM; in test [3], 100 to 500 nM; in test [4] it was above 2000 nM.
As to `C[C@H]1CN(C(=O)c2ccccc2)CCN1c1ncnc2c1c(-c1ccccc1F)cn2-c1cc(C#N)ccn1` [Compound 122, (S)-2-(4-(4-benzoyl-2-methylpiperazin-1-yl)-5-(2-fluorophenyl)-7H-pyrrolo[2,3-d]pyrimidin-7-yl)isonicotinonitrile], the EC50 was below 100 nM in test [2], 100 to 500 nM in test [3] and 500 to 2000 nM in test [4].
The like results for `C[C@@H]1CN(c2ncnc3c2c(-c2ccccc2F)cn3-c2cc(C#N)ccn2)[C@@H](C)CN1C(=O)c1ccccc1N(C)C` [Compound 121, 2-(4-((2S,5R)-4-(2-(dimethylamino)benzoyl)-2,5-dimethylpiperazin-1-yl)-5-(2-fluorophenyl)-7H-pyrrolo[2,3-d]pyrimidin-7-yl)isonicotinonitrile] were, in that order, below 100 nM, below 100 nM and 100 to 500 nM.
